Measurements from publication PMC8222713, “Variation of Two S3b Residues in KV4.1–4.3 Channels Underlies Their Different Modulations by Spider Toxin κ-LhTx-1” (Frontiers in Pharmacology, 2021).
Where a SMILES comes first, the peptide text is derived from it. Bridges are numbered along the chain shown (N, C = ends).

Assays:
KV4.2 channel (rKV4.2) = target: T1, KV4.2 channel (rKV4.2) (Rattus norvegicus, UniProt Q63881); test: Whole-cell patch clamp, KV4.2 (with hKChIP1) in CHO-K1 cells; type: cell-based
T1 construct: expressed in transfected cells; host or cells: CHO-K1 (transient, co-transfected with pEGFP-N1 and hKChIP1)
T1 sequence (Q63881 1-630): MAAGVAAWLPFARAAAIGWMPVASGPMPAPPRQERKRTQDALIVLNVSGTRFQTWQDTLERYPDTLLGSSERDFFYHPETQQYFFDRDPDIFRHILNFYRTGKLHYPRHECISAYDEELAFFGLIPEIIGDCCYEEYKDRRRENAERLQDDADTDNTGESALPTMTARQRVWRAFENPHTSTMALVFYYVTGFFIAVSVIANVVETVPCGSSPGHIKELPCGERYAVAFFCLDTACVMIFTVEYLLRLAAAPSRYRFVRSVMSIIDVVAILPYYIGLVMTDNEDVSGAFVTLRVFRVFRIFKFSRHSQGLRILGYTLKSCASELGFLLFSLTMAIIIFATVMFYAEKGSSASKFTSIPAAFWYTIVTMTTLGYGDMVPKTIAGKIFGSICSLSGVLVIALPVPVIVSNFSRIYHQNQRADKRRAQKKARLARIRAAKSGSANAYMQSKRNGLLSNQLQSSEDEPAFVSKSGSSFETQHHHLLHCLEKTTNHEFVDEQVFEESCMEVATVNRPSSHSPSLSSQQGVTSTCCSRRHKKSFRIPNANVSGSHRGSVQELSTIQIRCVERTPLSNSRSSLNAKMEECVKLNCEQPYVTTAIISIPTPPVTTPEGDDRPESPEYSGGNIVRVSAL
T1 sequence (Q9NZI2 1-227 partner): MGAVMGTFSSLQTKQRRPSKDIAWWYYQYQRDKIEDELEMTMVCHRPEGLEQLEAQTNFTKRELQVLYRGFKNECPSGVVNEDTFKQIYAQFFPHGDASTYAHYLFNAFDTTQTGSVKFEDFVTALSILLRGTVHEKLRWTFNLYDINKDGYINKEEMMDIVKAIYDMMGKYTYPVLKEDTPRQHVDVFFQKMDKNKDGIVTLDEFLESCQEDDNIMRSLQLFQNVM
Protocol: (§1) The cDNA of hKV1.1, hKV1.3, rKV1.4, hKV1.5, rKV2.1, hKV3.1–3.4, mKV4.1, rKV4.2, and rKV4.3 were subcloned in the eukaryotic expression vector pCDNA3.1 or pCMV-blank. Channel mutants were made by a site-directed mutation method. Briefly, a pair of oppositely directed primers with 15 bp overlap at their 5′ ends and the designed mutation site were used to amplify the parental channel plasmid, then the PCR mix was treated with DpnI to remove the template. 10 μL digestion mix was directly used to transform 100 μL DH5α chemical competent cells. The correct mutation made by this procedure was finally confirmed by DNA sequencing. CHO-K1 cells (ATCC® CCL-61™) were grown in DMEM-F12 mixed medium (1:1) supplemented with 10% FBS and maintained in standard conditions (saturated humidity, 37°C, 5% CO2). Channel plasmid was co-transfected with pEGFP-N1 (encodes the green fluoresence protein) into CHO-K1 cells using lipofectamine 2000 following the manufacturer’s instructions. 4–6 h after transfection, cells were seeded onto poly-lysine (PLL) coated coverslips, and 24–36 h later, transfected cells were ready for patch-clamp analysis. It should be note that KV4.2 and its mutants were also co-expressed with hKChIP1 to promote their functional expressions.
(§2) Whole-cell patch clamp recording was performed in an electrophysiology platform equipped with MultiClamp 700B amplifier and Axon Digidata 1550 AD/DA convertor (Axon Instruments, Irvine, CA, United States). Data were acquired using the pClamp software (Axon Instruments, Irvine, CA, United States). All experiments were performed at room temperature. The bath solution contains (in mM): 140 NaCl, 5 KCl, 1 MgCl2, 2 CaCl2, 10 glucose, and 10 HEPES (pH = 7.3). The pipette solution contains (in mM): 140 KCl, 2.5 MgCl2, 11 EGTA, and 10 HEPES (pH = 7.3). Series resistance was kept below 10 MΩ and compensated to 80%. The concentration–response curves were fitted by a Hill logistic equation to estimate the potency (IC50) of the toxin. The whole cell conductance (G) at each depolarizing voltage (V) was determined using the equation: G = I/(V−Vrev), where I and Vrev represents the current amplitude and the reversal potential, respectively. In the present study, Vrev for K^+ current is determined to be −85.61 mV using the Nernst equation. G-V curve was obtained by plotting the normalized G as a function of V and fitted by the Boltzmann equation: y = 1/{1 + exp [(Va−V)/K]}, in which Va, V, and K represents half-maximum activation voltage, test voltage and slope factor, respectively. The steady-state fast inactivation of KV4 channels was measured using a classical two-pulses protocol: cell was held at −120 mV, and a train of conditional voltages (−120–40 mV, in 10 mV increment, 1,000 ms) were applied to induce channel inactivation, followed by a +60 mV test pulse (300 ms) to assess the proportion of non-inactivated channels; the sweep interval was set to 10 s. Currents at the test pulse (I) were normalized to the maximum value (Imax) and plotted as a function of the conditional voltage (V), the curve was fitted by the Boltzmann equation: I/Imax = A + (1−A)/{1 + exp [(V−Vh)/K]}, where Vh is the half-maximum inactivation voltage, A represents the minimum channel availability, and K is the slope factor. Gating currents of KV4.1–4.3 channels were measured as previously reported ([Tilley et al., 2019]). Briefly, the ionic pore currents were abolished by replacing K^+ with NMDG^+ in the pipette solution, and 10 µM Cs^+ was present in the bath solution to occupy the selectivity filter of KV channels to prevent decay of the gating currents during recording.
(§3) Data were presented as MEAN ± SEM, n represents the number of separate experimental cells. Data were analyzed using the software Clampfit 10.5 (Axon Instruments, Irvine, CA, United States), Graphpad Prism 5.01 (GraphPad Software, La Jolla, CA, United States) and Excel 2010 (Microsoft Corporation, Redmond, WA, United States). […]

KV3.1 channel (hKV3.1) = test: Whole-cell patch clamp selectivity, KV3.1; type: cell-based, human; details: KV3.1, 10 µM, n = 5
Protocol: The cDNA of hKV1.1, hKV1.3, rKV1.4, hKV1.5, rKV2.1, hKV3.1–3.4, mKV4.1, rKV4.2, and rKV4.3 were subcloned in the eukaryotic expression vector pCDNA3.1 or pCMV-blank. Channel mutants were made by a site-directed mutation method. Briefly, a pair of oppositely directed primers with 15 bp overlap at their 5′ ends and the designed mutation site were used to amplify the parental channel plasmid, then the PCR mix was treated with DpnI to remove the template. 10 μL digestion mix was directly used to transform 100 μL DH5α chemical competent cells. The correct mutation made by this procedure was finally confirmed by DNA sequencing. […] 4–6 h after transfection, cells were seeded onto poly-lysine (PLL) coated coverslips, and 24–36 h later, transfected cells were ready for patch-clamp analysis. […]
Whole-cell patch clamp recording was performed in an electrophysiology platform equipped with MultiClamp 700B amplifier and Axon Digidata 1550 AD/DA convertor (Axon Instruments, Irvine, CA, United States). […] The whole cell conductance (G) at each depolarizing voltage (V) was determined using the equation: G = I/(V−Vrev), where I and Vrev represents the current amplitude and the reversal potential, respectively. In the present study, Vrev for K^+ current is determined to be −85.61 mV using the Nernst equation. […] Gating currents of KV4.1–4.3 channels were measured as previously reported ([Tilley et al., 2019]). […]

[1] = system: KV4.3-TN/PK (KV4.3/277PK, T277P/N278K double mutant); test: Whole-cell patch clamp, KV4.3-TN/PK (KV4.3/277PK) in CHO-K1 cells; type: cell-based, rat
Protocol: as §1, §2, §3

[2] = 10 μM κ-LhTx-1, KV4.2, G-V, mean ± SEM, n = 8
[3] = 10 μM κ-LhTx-1, KV4.2, two-pulse protocol, mean ± SEM, n = 6
[4] = 10 μM κ-LhTx-1, KV4.3-TN/PK, G-V, mean ± SEM, n = 5
[5] = 10 μM κ-LhTx-1, KV4.3-TN/PK, two-pulse protocol, mean ± SEM, n = 5

CC[C@H](C)[C@@H]1NC(=O)[C@H](CCC(N)=O)NC(=O)[C@@H]2CSSC[C@@H]3NC(=O)[C@H](CC(C)C)NC(=O)[C@H](CC(N)=O)NC(=O)[C@H](CCSC)NC(=O)[C@H](Cc4c[nH]c5ccccc45)NC(=O)[C@H](CO)NC(=O)[C@H](C)NC(=O)[C@@H](NC(=O)[C@H](CCC(=O)O)NC(=O)[C@H](CCC(N)=O)NC(=O)[C@H](C)NC(=O)[C@H](CC(=O)O)NC(=O)[C@@H](N)CCC(=O)O)CSSC[C@H](NC(=O)[C@H](CSSC[C@@H](C(=O)N[C@@H](CCCCN)C(=O)N[C@@H](Cc4ccc(O)cc4)C(=O)N[C@@H](CCCCN)C(=O)N[C@@H](CC(C)C)C(N)=O)NC(=O)[C@H](Cc4c[nH]c5ccccc45)NC1=O)NC(=O)[C@H](CCCCN)NC(=O)[C@H](CCCCN)NC(=O)[C@H](CCC(=O)O)NC(=O)CNC3=O)C(=O)N[C@@H](CCC(=O)O)C(=O)NCC(=O)N[C@@H](Cc1ccc(O)cc1)C(=O)N[C@@H](C(C)C)C(=O)N2 [κ-LhTx-1] (H-EDAQECASWMNLCGEKKCCEGYVCQIWCKYKL-NH2; disulfide 6-19, 13-24, 18-28 (inferred); N-terminus and C-terminus assumed)
Va (steady-state activation) (KV4.2 channel (rKV4.2); [2]): 30.24 ± 1.82 mV
k, slope factor (steady-state activation) (KV4.2 channel (rKV4.2); [2]): 21.99 ± 0.42 mV
Vh (steady-state inactivation) (KV4.2 channel (rKV4.2); [3]): -69.67 ± 1.87 mV
k, slope factor (steady-state inactivation) (KV4.2 channel (rKV4.2); [3]): 7.22 ± 0.26 mV
reversibility of inhibition (KV4.2 channel (rKV4.2); KV4.2): in a reversible manner
voltage-dependence of inhibition (KV4.2 channel (rKV4.2); KV4.2, 10 µM, inhibition ratio at each depolarizing voltage, n = 5–8): decreased quickly with the increment of the depolarizing voltage
I-V relationship shift (KV4.2 channel (rKV4.2); KV4.2, 10 µM, n = 5–8): only a small shift
current inhibition at Va (KV4.2 channel (rKV4.2); KV4.2 at Va depolarizing voltage): almost fully inhibited
∆Va (steady-state activation) (KV4.2 channel (rKV4.2); Va shift by 10 μM κ-LhTx-1 vs control, KV4.2, mean ± SEM): 39.52 ± 2.55 mV
effect on currents (KV3.1 channel (hKV3.1)): did not remarkably affect the currents
Va (steady-state activation) [1, 4]: 81.96 ± 2.27 mV
k, slope factor (steady-state activation) [1, 4]: 15.09 ± 1.14 mV
Vh (steady-state inactivation) [1, 5]: -25.43 ± 2.92 mV
k, slope factor (steady-state inactivation) [1, 5]: 15.31 ± 2.02 mV
∆Va and inhi%(min) vs KV4.1 ([1]; KV4.3/277PK, 10 μM): not significantly different from those in KV4.1
∆Va (steady-state activation) ([1]; Va shift by 10 μM κ-LhTx-1 vs control, KV4.3-TN/PK, mean ± SEM): 87.43 ± 2.99 mV
∆Vh (steady-state inactivation) ([1]; Vh shift by 10 μM κ-LhTx-1 vs control, KV4.3-TN/PK, mean ± SEM): 26.29 ± 3.52 mV
